This test concerns the target VEGFR II (KDR) kinase (Homo sapiens, UniProt P35968). Kind of test: Inhibition of KDR kinase activity (33P-ATP incorporation into poly-(Glu4Tyr), phosphocellulose filter). The test is classed as biochemical. As to conditions: 10 minutes at room temperature; substrate poly-(Glu4Tyr). On the procedure: Stock solutions Stock solution A: 3 mM ATP in water pH 7.0 (−70° C.) Stock solution B: g-33P-ATP 1mCi/100 μl Stock solution C: poly-(Glu4Tyr) 10 mg/ml in water
• Substrate solvent: 10 mM DTT, 10 mM manganese chloride 100 mM magnesium chloride • Enzyme solution: 120 mM Tris/HCl, pH 7,5, 10 μM sodium vanadium oxide
10 μl of substrate mix [10 μl vol ATP stock solution A+25 μCi g-33P-ATP (ca. 2.5 μl of stock solution B)+30 μl poly-(Glu4Tyr) stock solution C+1.21 ml substrate solvent], 10 μl inhibitor solution [substances corresponding to the dilutions, as a control 3% DMSO in substrate solvent] and 10 μl enzyme solution [11.25 μg enzyme stock solution (KDR or FLT-1 kinase) are diluted at 4° C. in 1.25 ml enzyme solution], are added to a tapering microtitre plate (without protein binding). The mixture is mixed thoroughly and incubated for 10 minutes at room temperature. Subsequently, 10 μl of stop solution (250 mM EDTA, pH 7.0) is added, mixed and 10 μl of the solution transferred to a P 81 phosphocellulose filter. Is is subsequently washed several times in 0.1 M phosphoric acid. The filter paper is dried, coated with MeltiLex and measured in a MicroBeta counter.
The IC50 values are determined from the concentration of inhibitor required to inhibit the phosphate incorporation to 50% of the uninhibited incorporation after deducting the reference value (EDTA-stopped reaction).

VEGFR II (KDR) kinase, sequence (P35968 20-1356, species assumed): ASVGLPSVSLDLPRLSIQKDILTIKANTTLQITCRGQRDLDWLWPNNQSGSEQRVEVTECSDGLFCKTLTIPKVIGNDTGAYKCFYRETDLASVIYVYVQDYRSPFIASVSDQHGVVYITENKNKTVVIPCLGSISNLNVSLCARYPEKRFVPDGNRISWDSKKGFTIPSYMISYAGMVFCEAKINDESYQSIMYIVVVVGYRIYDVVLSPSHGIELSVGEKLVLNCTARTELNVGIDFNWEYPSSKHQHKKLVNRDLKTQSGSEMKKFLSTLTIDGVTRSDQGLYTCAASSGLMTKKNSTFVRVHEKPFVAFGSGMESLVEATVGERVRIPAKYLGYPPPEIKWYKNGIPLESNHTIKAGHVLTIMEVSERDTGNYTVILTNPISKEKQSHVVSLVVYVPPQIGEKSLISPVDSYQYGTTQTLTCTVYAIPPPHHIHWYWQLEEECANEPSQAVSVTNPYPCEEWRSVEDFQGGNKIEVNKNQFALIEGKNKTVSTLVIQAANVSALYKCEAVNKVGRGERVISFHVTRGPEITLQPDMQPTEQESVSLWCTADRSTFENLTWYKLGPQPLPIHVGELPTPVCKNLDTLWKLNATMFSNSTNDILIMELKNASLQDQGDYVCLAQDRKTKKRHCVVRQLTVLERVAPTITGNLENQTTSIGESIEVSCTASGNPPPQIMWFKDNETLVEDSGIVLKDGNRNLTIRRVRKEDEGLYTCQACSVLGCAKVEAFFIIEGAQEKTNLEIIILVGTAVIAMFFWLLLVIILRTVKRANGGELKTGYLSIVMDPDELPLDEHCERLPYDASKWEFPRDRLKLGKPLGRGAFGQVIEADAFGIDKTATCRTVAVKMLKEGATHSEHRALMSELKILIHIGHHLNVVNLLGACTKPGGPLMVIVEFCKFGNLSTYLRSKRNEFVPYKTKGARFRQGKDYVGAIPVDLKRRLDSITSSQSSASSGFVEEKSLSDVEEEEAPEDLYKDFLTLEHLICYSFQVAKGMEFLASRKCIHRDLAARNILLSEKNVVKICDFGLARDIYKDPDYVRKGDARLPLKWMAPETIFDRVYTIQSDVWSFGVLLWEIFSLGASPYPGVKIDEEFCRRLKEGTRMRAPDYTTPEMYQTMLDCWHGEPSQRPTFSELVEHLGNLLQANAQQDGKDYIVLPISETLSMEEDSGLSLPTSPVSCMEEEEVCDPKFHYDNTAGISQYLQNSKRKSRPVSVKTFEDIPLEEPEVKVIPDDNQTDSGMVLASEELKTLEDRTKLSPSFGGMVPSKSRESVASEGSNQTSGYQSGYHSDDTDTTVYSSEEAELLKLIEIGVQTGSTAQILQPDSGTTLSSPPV

`O=C(Nc1cc2ccccc2cn1)c1cncnc1NCc1ccncc1` [Example 2.0, N-isoquinolin-3-yl-4-[(4-pyridyl)methyl]amino-pyrimidine-5-carboxylic acid amide] showed an IC50 of 100 nM.

`O=C(Nc1cccc(C(F)(F)F)c1)c1cncnc1NCc1ccncc1` [Example 2.1]: half-maximal inhibition (IC50) required 200 nM.

For the origin of these results see patent US20110071165A1, “Aza- and polyazanthranyl amides and their use as medicaments” (NOVARTIS AG, priority 2000, published 2011).
